Assay results taken from PMC5614982, “Impact of Gastric H^+/K^+-ATPase rs2733743 on the Intragastric pH-Values of Dexlansoprazole Injection in Chinese Subjects” (Frontiers in Pharmacology, 2017).
Marks after values point to notes of the source that are not given here.

Tested on: intragastric pH
Test: 24-h intragastric pH monitoring after single intravenous dexlansoprazole in healthy Chinese subjects
Format: in vivo, human
Details: 30 mg iv
Description: Dexlansoprazole injection (30 mg per vial) used in the PK and PD study was manufactured by Nanjing Yoko Pharma Co., Ltd. (Nanjing, China). Subjects received an intravenous infusion of 20 or 30 mg dexlansoprazole injection in sterile saline solution (100 mL/h, 60 min). The study drug was administrated with an infusing pump (SA213, Lifepum, Beijing, China) and given through an intravenous catheter in the antecubital vein opposite to the one from which blood samples were taken.
An ambulatory pH recorder (Orion II, MMS, USA) with a disposable pH catheter (VersaFlex, MMS, USA) was used to monitor intragastric pH. The electrode was placed in water for at least 10 min and then calibrated using standard buffer solutions (pH 1.07 and 7.01) before intubation. Both calibration and intubation processes were conducted under the guidance of MMS Virtual Instructor Program. The catheter, trans nasally placed 10 cm under the lower esophageal sphincter, was identified by a sharp decrease in pH (Wang et al., [2010], [2011]). Subjects were intubated on baseline and the day of dosing at about 7:30 a.m., and the intragastric pH data were recorded continuously for 24 h from 8:00 a.m. Intragastric pH was sampled every second, and the data were stored in a MMS Database program (MMS, USA). The PD parameters including Median (pH), Mean (pH), TpH≥3 (%), TpH≥4 (%), TpH≥6 (%), TpH≥6, and AUC^pH−t were analyzed by the MMS Database program.
Median (pH) and mean (pH) were well-investigated in most studies, and the percentage time of pH ≥ 4 (or pH ≥ 4 holding time ratio) was the benchmark for predicting clinical efficacy of PPIs in treating acid-related diseases (Metz et al., [2009]). Novel parameter TpH≥6 (time to first gastric pH ≥ 6, min) and AUCτ 1-τ 2pH-t (area under pH-time curve from τ1 to τ2, pH·s) were defined to evaluate the velocity and extent of pharmacodynamics with more accuracy. All parameters were calculated and compared according to time periods of 0–24, 0–4, 4–10, 10–14, and 14–24 h post dosing.
The parameter AUCτ 1-τ 2pH-t was calculated as follows:
Where t represented the time duration measured by seconds, AUCτ 1-τ 210-t was the area between the pH line = 10 and the pH-time curve, which was generated by the MMS software.
Baseline-adjusted PD parameters were calculated as follows: for example, ΔAUC^pH−t = AUC^pH−t − AUC^pH−tbaseline, ΔMean (pH) = Mean (pH) − Mean (pH)^baseline, and ΔMedian (pH) = Median (pH) − Median (pH)^baseline.

[1] = CYP2C19 EMs, H+/K+-ATPase Het (n = 8), 0–4 h
[2] = CYP2C19 EMs, H+/K+-ATPase Het (n = 8), 0–24 h
[3] = CYP2C19 EMs, H+/K+-ATPase Het (n = 8), 14–24 h
[4] = CYP2C19 EMs, H+/K+-ATPase Hom (n = 7), 0–4 h
[5] = CYP2C19 EMs, H+/K+-ATPase Hom (n = 7), 0–24 h
[6] = CYP2C19 EMs, H+/K+-ATPase Hom (n = 7), 14–24 h

Cc1c(OCC(F)(F)F)ccnc1C[S@@+]([O-])c1nc2ccccc2[nH]1 [dexlansoprazole]
TpH≥6(%) (14–24 h): 49.2 ± 25.2% | ΔMean (pH) (14–24 h): 2.8 ± 1.4 pH | ΔMedian (pH) (14–24 h): 3.1 ± 1.9 pH | ΔTpH≥3(%) (14–24 h): 60.0 ± 26.0% | ΔTpH≥4 (%) (14–24 h): 54.8 ± 28.3% | ΔTpH≥6(%) (14–24 h): 35.2 ± 25.6% | Mean (pH) (CYP2C19 EM (n = 11), 0–4 h): 5.7 ± 1.6 pH | Median (pH) (CYP2C19 EM (n = 11), 0–4 h): 6.2 ± 2.1 pH | TpH≥3(%) (CYP2C19 EM (n = 11), 0–4 h): 73.9 ± 21.7% | TpH≥4(%) (CYP2C19 EM (n = 11), 0–4 h): 69.3 ± 24.3% | TpH≥6(%) (CYP2C19 EM (n = 11), 0–4 h): 58.7 ± 31.9% | ΔMean (pH) (CYP2C19 EM (n = 11), 0–4 h): 3.2 ± 1.1 pH | ΔMedian (pH) (CYP2C19 EM (n = 11), 0–4 h): 3.9 ± 1.8 pH | ΔTpH≥3(%) (CYP2C19 EM (n = 11), 0–4 h): 48.6 ± 24.5% | ΔTpH≥4 (%) (CYP2C19 EM (n = 11), 0–4 h): 51.9 ± 17.7% | ΔTpH≥6(%) (CYP2C19 EM (n = 11), 0–4 h): 53.0 ± 27.4% | Mean (pH) (CYP2C19 EM (n = 11), 0–24 h): 5.7 ± 1.3 pH | Median (pH) (CYP2C19 EM (n = 11), 0–24 h): 5.9 ± 1.7 pH | TpH≥3(%) (CYP2C19 EM (n = 11), 0–24 h): 80.0 ± 19.5% | TpH≥4(%) (CYP2C19 EM (n = 11), 0–24 h): 73.0 ± 23.2% | TpH≥6(%) (CYP2C19 EM (n = 11), 0–24 h): 56.4 ± 24.1% | ΔMean (pH) (CYP2C19 EM (n = 11), 0–24 h): 2.8 ± 1.1^c pH | ΔMedian (pH) (CYP2C19 EM (n = 11), 0–24 h): 3.7 ± 1.5 pH | ΔTpH≥3(%) (CYP2C19 EM (n = 11), 0–24 h): 47.9 ± 20.2^c % | ΔTpH≥4 (%) (CYP2C19 EM (n = 11), 0–24 h): 50.4 ± 21.3^c % | ΔTpH≥6(%) (CYP2C19 EM (n = 11), 0–24 h): 47.4 ± 19.7^c % | Mean (pH) (CYP2C19 EM (n = 11), 14–24 h): 4.9 ± 1.7 pH | Median (pH) (CYP2C19 EM (n = 11), 14–24 h): 4.5 ± 2.0 pH | TpH≥3(%) (CYP2C19 EM (n = 11), 14–24 h): 67.5 ± 34.5% | TpH≥4(%) (CYP2C19 EM (n = 11), 14–24 h): 56.3 ± 37.2% | TpH≥6(%) (CYP2C19 EM (n = 11), 14–24 h): 37.1 ± 25.0^c % | ΔMean (pH) (CYP2C19 EM (n = 11), 14–24 h): 2.0 ± 1.2^c pH | ΔMedian (pH) (CYP2C19 EM (n = 11), 14–24 h): 2.1 ± 1.8^c pH | ΔTpH≥3(%) (CYP2C19 EM (n = 11), 14–24 h): 47.0 ± 27.6^c % | ΔTpH≥4 (%) (CYP2C19 EM (n = 11), 14–24 h): 38.6 ± 27.9^c % | ΔTpH≥6(%) (CYP2C19 EM (n = 11), 14–24 h): 21.1 ± 18.0^c % | Mean (pH) [1]: 4.7 ± 2.4 pH | Median (pH) [1]: 4.5 ± 2.8 pH | TpH≥3(%) [1]: 63.7 ± 35.7% | TpH≥4(%) [1]: 56.9 ± 39.3^c % | TpH≥6(%) [1]: 39.4 ± 48.2% | ΔMean (pH) [1]: 2.2 ± 0.8^c pH | ΔMedian (pH) [1]: 1.9 ± 1.0^a^,^c pH | ΔTpH≥3(%) [1]: 36.4 ± 20.1% | ΔTpH≥4 (%) [1]: 35.0 ± 11.7% | ΔTpH≥6(%) [1]: 33.8 ± 39.0% | Mean (pH) [2]: 5.1 ± 1.7 pH | Median (pH) [2]: 4.9 ± 2.1 pH | TpH≥3(%) [2]: 70.1 ± 26.3% | TpH≥4(%) [2]: 62.9 ± 33.1% | TpH≥6(%) [2]: 48.0 ± 32.5% | ΔMean (pH) [2]: 2.3 ± 0.6^c pH | ΔMedian (pH) [2]: 2.9 ± 1.6 pH | ΔTpH≥3(%) [2]: 40.8 ± 11.1^c % | ΔTpH≥4 (%) [2]: 41.4 ± 17.3^c % | ΔTpH≥6(%) [2]: 37.3 ± 19.1% | Mean (pH) [3]: 4.1 ± 2.1 pH | Median (pH) [3]: 3.5 ± 2.2 pH | TpH≥3(%) [3]: 53.0 ± 41.0% | TpH≥4(%) [3]: 44.6 ± 48.0% | TpH≥6(%) [3]: 30.2 ± 32.6% | ΔMean (pH) [3]: 1.2 ± 0.4^c pH | ΔMedian (pH) [3]: 0.5 ± 0.5^c pH | ΔTpH≥3(%) [3]: 31.5 ± 13.0^c % | ΔTpH≥4 (%) [3]: 25.1 ± 16.9% | ΔTpH≥6(%) [3]: 11.6 ± 2.9^c % | Mean (pH) [4]: 6.6 ± 0.5 pH | Median (pH) [4]: 7.8 ± 0.1 pH | TpH≥3(%) [4]: 78.7 ± 10.0% | TpH≥4(%) [4]: 77.1 ± 11.6^b % | TpH≥6(%) [4]: 75.5 ± 12.2% | ΔMean (pH) [4]: 4.3 ± 0.4^b pH | ΔMedian (pH) [4]: 5.9 ± 0.4^b pH | ΔTpH≥3(%) [4]: 62.5 ± 11.6% | ΔTpH≥4 (%) [4]: 67.2 ± 2.4% | ΔTpH≥6(%) [4]: 70.1 ± 4.5% | Mean (pH) [5]: 6.8 ± 0.2 pH | Median (pH) [5]: 7.5 ± 0.4 pH | TpH≥3(%) [5]: 95.1 ± 1.1% | TpH≥4(%) [5]: 87.9 ± 4.7% | TpH≥6(%) [5]: 73.4 ± 3.7% | ΔMean (pH) [5]: 4.3 ± 0.4^a^,^b pH | ΔMedian (pH) [5]: 5.4 ± 0.3 pH | ΔTpH≥3(%) [5]: 77.4 ± 6.3^a^,^b % | ΔTpH≥4 (%) [5]: 78.0 ± 1.5^a^,^b % | ΔTpH≥6(%) [5]: 68.7 ± 7.9% | Mean (pH) [6]: 6.2 ± 0.4 pH | Median (pH) [6]: 6.3 ± 1.3 pH | TpH≥3(%) [6]: 96.8 ± 1.2% | TpH≥4(%) [6]: 80.4 ± 6.2% | TpH≥6(%) [6]: 51.5 ± 10.9% | ΔMean (pH) [6]: 3.7 ± 0.5^a^,^b pH | ΔMedian (pH) [6]: 4.2 ± 0.8^b pH | ΔTpH≥3(%) [6]: 83.1 ± 5.9^a^,^b % | ΔTpH≥4 (%) [6]: 72.4 ± 1.5% | ΔTpH≥6(%) [6]: 45.8 ± 17.4^a^,^b %
